Test results published in patent publication US6610501B2, “Porcine protein and uses thereof” (New York Blood Center, Inc., priority 1999, dated 2003).

Legend:
Assay type in all cases: cell-based, porcine
pRBCs [1] = conditions: 1 mg/ml trisaccharide, time course experiment at 37° C.; FIG. 5
Text: FIG. 3 represents the procedure for measuring human complement-mediated hemolysis. The procedure is outlined in panel B. Hemolysis (A) is plotted as percent lysis versus volume of human serum added (μl). Lysis is defined as (OD-ODo)/(OD100−ODo), where OD represents the amount of lysis, as measured by the absorbance at 541 nm, ODo is the absorbance at 541 nm that is due to spontaneous lysis in the absence of any additions, and OD100 is the absorbance at 541 nm that is due to 100% lysis of red cells under the experimental conditions. […]
The hemolysis was monitored up to 4 hr. […]
In blood transfusions between humans, mismatched red cells undergo intravascular destruction by the same mechanism as complement-induced hemolysis observed in vitro. […] Since this serum was derived from type B individuals, as determined by hemagglutination assays, we used only non-type A pRBCs in the complement assays to exclude the binding of anti-A antibody present in the serum.
The human serum (between 3-18 μl) was mixed with 40 μl of 5% pRBCs (about 2×10^7 cells) in a total volume of 210 μl. […] Hemoglobin molecules released from the lysed cells into the supernatant were quantitated by measuring the absorbance at 541 nm. […]
We also measured the time course for complement-mediated hemolysis of pRBCs (FIG. 5). […]

pRBCs [2] = assay: Flow cytometry analysis of binding of human xenoreactive antibodies to pRBCs
Procedure: FIG. 7 represents the effect of the trisaccharide of FIG. 4 on the binding of fractions S1 and S2 to pRBCs. 40 μl of the trisaccharide (2 mg/ml) was added to 2 μl of S1 or S2 plus 38 μl of PBS (final concentration of trisaccharide 1 mg/ml), followed by incubation at 4° C. overnight. pRBCs were then added and flow cytometry analysis performed, using anti-human IgG (H+L) conjugated with phycoerythrin (PE) as the secondary antibody. Sample 1: negative control lacking the primary and secondary antibodies. Sample 2: negative control containing the secondary antibody only. Samples 3 and 4: fraction S1 without and with the trisaccharide of FIG. 4, respectively. Samples 5 and 6: fraction S2 without and with the trisaccharide of FIG. 4, respectively.
FIG. 8 represents the effect of concentration of the trisaccharide of FIG. 4 on the binding of S1 to pRBCs. Fraction S1 was incubated with various amounts of the trisaccharide under the same conditions described in […]. The binding of IgG (curve 1) and IgM (curve 2) molecules from fraction S1 was monitored by flow cytometry, using anti-human IgG and anti-human IgM, respectively. The data from the flow cytometry analyses were plotted as mean fluorescent intensity (MFI) versus the final concentration of trisaccharide, and the curves were generated by nonlinear curve fitting.
FIG. 9 represents the effect of the trisaccharide of FIG. 4 on the binding of anti-αGal and non-αGal antibodies to pRBCs. The control samples (1 and 2) were as described for FIG. 7. (A): anti-αGal antibody incubated in the absence (curve 3) or presence (curve 4) of the trisaccharide (1 mg/ml). (B): Non-αGal antibodies incubated in the absence (curve 3) or presence (curve 4) of the trisaccharide (1 mg/ml). […]
Various fractions derived from human serum were analyzed by flow cytometry. […]
To directly detect non-anti-αGal antibodies from the S2 fraction, we isolated these antibodies by using a pRBC absorption/elution method. The eluted fraction (non-αGal antibodies) was then measured for its binding to pRBCs in the presence or absence of the trisaccharide. […]

pRBCs [3] = assay: Effect of ssDNA and thyroglobulin on S1- or S2-induced hemagglutination of pRBCs; conditions: final concentration 1 mg/ml, 4° C. 3 hr
Text: To determine whether the xenoreactive antibodies that we characterized in the binding of pRBCs are polyreactive, we tested the effect of ssDNA and thyroglobulin on binding of antibodies by hemagglutination assays and flow cytometry analyses (Turman M A, Casali P, Notkins A L, Bach F H, and Platt J L (1991) Transplantation 52:710-717). To ensure that the xenoreactive antibodies were not present in excess, we titrated the amount of antibodies used in the hemagglutination assays and chose the dilution that produced an intermediate strength (2+ or 3+) for inhibition. Fraction S1 or S2 was pre-incubated with ssDNA or thyroglobulin (final concentration 1 mg/ml) at 4° C. for 3 hr before adding pRBCs for the hemagglutination assay.

Compound	inhibition of cell lysis (pRBCs [1])	inhibition of anti-αGal antibody in normal human serum (pRBCs [2]; trisaccharide 1 mg/ml, flow cytometry)	inhibition of IgG versus IgM binding of S1 to pRBCs (pRBCs [2]; various trisaccharide concentrations, FIG. 8)	inhibitory effect on S1- or S2-induced hemagglutination (pRBCs [3])	effect on binding of xenoreactive antibodies to pRBCs (pRBCs [2]; pre-incubation at 0.01, 0.1 or 1.0 mg/ml, FIG. 11)
CC(=O)N[C@H]1C(O)O[C@H](CO)[C@@H](O[C@@H]2O[C@H](CO)[C@H](O)[C@H](O[C@H]3O[C@H](CO)[C@H](O)[C@H](O)[C@H]3O)[C@H]2O)[C@@H]1O (some centres unmarked) [trisaccharide, Galα1,3Galβ1,4GlcNAc]	approximately 50%	completely inhibited	inhibit IgG binding more efficiently than IgM binding	–	–
thyroglobulin: thyroglobulin used to test polyreactivity of the antibodies	–	–	–	neither ssDNA nor thyroglobulin showed any inhibitory effect	little affected, if any
